# Measurements from ChEMBL document CHEMBL1146094, “Screening for cardiovascular safety: a structure-activity approach for guiding lead selection of melanin concentrating hormone receptor 1 antagonists” (J Med Chem, 2006).
# Key:
# Rattus norvegicus [1] = test: End-of-study drug concentration in inactin-anesthetized Sprague-Dawley rat brain; type: functional
# IMR-32 [2] = test: Inhibition of MCH-mediated calcium release in whole IMR32 cells at 10 uM by FLIPR assay; type: functional; conditions: Homo sapiens
# Rattus norvegicus [3] = test: End-of-study drug concentration in inactin-anesthetized Sprague-Dawley rat plasma; type: functional
# [4] = target: Melanin-concentrating hormone receptor 1 (Homo sapiens, UniProt Q99705); test: Displacement of [125I]MCH from MCHr1 expressed in IMR32 (I3.4.2) cells; type: cell-based
# Melanin-concentrating hormone receptor 1, sequence (Q99705 whole entry): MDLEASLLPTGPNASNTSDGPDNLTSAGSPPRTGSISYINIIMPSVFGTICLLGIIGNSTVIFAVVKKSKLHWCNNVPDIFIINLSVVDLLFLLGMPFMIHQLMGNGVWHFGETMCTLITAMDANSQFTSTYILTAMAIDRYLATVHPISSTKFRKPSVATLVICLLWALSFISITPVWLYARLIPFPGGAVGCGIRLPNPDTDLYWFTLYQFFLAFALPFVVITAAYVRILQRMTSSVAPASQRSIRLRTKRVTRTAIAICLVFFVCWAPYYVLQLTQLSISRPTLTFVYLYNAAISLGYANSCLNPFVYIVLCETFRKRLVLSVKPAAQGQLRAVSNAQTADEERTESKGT
# IMR-32 [5] = test: Inhibition of MCH-mediated calcium release in whole IMR32 cells by FLIPR assay; type: functional, cell-based; conditions: Homo sapiens
# [6] = AUC in DIO mice plasma at 10 mg/kg, po; type: ADME, organism-based; set-up: dose 10 mg/kg, route oral; conditions: mouse
# Mus musculus = test: AUC in DIO mice brain at 10 mg/kg, po; type: ADME, organism-based; set-up: dose 10 mg/kg, route oral; conditions: in vivo
Structure (SMILES),IC50 [4] [nM],IC50 (IMR-32 [5]) [nM],AUC [6] [ng·h/mL],AUC (Mus musculus) [µg·h/g],Activity (Rattus norvegicus [1]) [µg/g],inhibition at 10 µM (IMR-32 [2]) [%],Activity (Rattus norvegicus [3]) [µM]
CC(C)OCCNc1ncc(Cl)cc1C(=O)NC1CCCN(Cc2ccc3c(c2)OCO3)C1 (configuration not stated),,,,,138,30,61
O=C(Nc1ccc(Oc2ccccc2)cc1)Nc1ccc2nn(CCN3CCCC3)cc2c1,46,314,,,6,,558
O=C(Nc1ccc(Oc2ccccc2)cc1)Nc1ccc2nn(CCN3CC[C@H](O)C3)cc2c1,57,214,1020,0,3,,201
Clc1ccc2[nH]nc(NC3CCN(Cc4ccc5c(c4)OCO5)CC3)c2c1,16,376,,,30,,22
O=C(Nc1ccc(Oc2ccccc2)cc1)Nc1ccc2c(cnn2CCN2CCCC2)c1,,,,,10,,88
O=C(Cc1ccc(OCc2ccccc2)cc1)Nc1ccc2c(cnn2CCN2CCCC2)c1,,,,,46,14,53
O=C(Cc1ccc(Oc2ccccc2)cc1)Nc1ccc2c(cnn2CCN2CCCC2)c1,78,309,,,,,2
COc1ccc2c(=O)cc(C(=O)NC3CCN(Cc4ccc5c(c4)OCO5)CC3)oc2c1,6,73,18700,4.4,158,,66

# Further lines, with some results ahead:
IC50 [4] [nM],IC50 (IMR-32 [5]) [nM],AUC [6] [ng·h/mL],AUC (Mus musculus) [µg·h/g],Structure (SMILES),Activity (Rattus norvegicus [1]) [µg/g],inhibition at 10 µM (IMR-32 [2]) [%],Activity (Rattus norvegicus [3]) [µM]
10,74,,,COc1ccc2nccc(NC3CCN(Cc4ccc5c(c4)OCO5)CC3)c2c1,,,
3,83,,,O=C(NC1CCN(Cc2ccc3c(c2)OCO3)CC1)c1cc(=O)c2cc(Cl)c(Cl)cc2o1,63,,42
,53,,,O=C(NC1CCN(Cc2ccc3c(c2)OCO3)CC1)c1cc(Cl)ccc1NCc1nccs1,,,91
2,11,,,COc1ccc2oc(O)c/c(=N\C3CCN(Cc4ccc5c(c4)OCO5)CC3)c2c1,71,,272
5,136,,,O=C(Nc1ccc(Oc2ccccc2)cc1)Nc1ccc2c(cnn2CCN2CCCCC2)c1,13,,77
4,103,,,O=C(Nc1ccc(Oc2ccccc2)cc1)Nc1ccc2c(cnn2CCN2CCCCCC2)c1,,,
,71,,,O=C(Cc1ccc(OCc2ccccc2)cc1)Nc1cccc2c1cnn2CCN1CCCC1,,,4
,11,,,O=C(Cc1ccc(OCc2ccccc2)cc1)Nc1ccc2cnn(CCN3CCCC3)c2c1,10,,23
3630,> 10000,,,COc1ccc(CC(=O)Nc2ccc3cnn(CCN4CCCC4)c3c2)cc1,6,14,39
,25,,,CC(C)OCCNc1ncc(Cl)cc1C(=O)NC1CCN(Cc2ccc3c(c2)OCO3)CC1,88,,44
